Assay results reported in US20160339005A1, “COMPOSITIONS AND METHODS FOR TREATING OCULAR DISEASES” (AKEBIA THERAPEUTICS, INC., priority 2014, published 2016).
“Also recorded” adds a separate entry of the source.

System: choroidal neovascularization (CNV)
Assay: Rodent model of surgically (laser) induced CNV, intravitreal injection, fluorescein angiography lesion areas
Format: in vivo, Brown Norway rats
Parameters: Mean of lesion areas, Left Eye (OS) / Mean of lesion areas, Both Eyes (OU): unit not given here
Conditions: for fluorescein leakage in fluorescein angiography images: sample animal
Description: In one example, twenty-four (24) naïve, male Brown Norway rats, 225-250 g at study start, are acclimated for a minimum of 5 days prior to dosing. Animals are weighed prior to dosing and at euthanasia. All animals undergo pre-screening ophthalmic examinations prior to study start as follows:
CNV is then induced via laser treatment (e.g. laser photocoagulation (20-100-μm spot size; 0.05-0.1 seconds duration; 50 to 200 mW) at six positions of the posterior pole in each eye) by a board certified veterinary ophthalmologist. Only animals in which the laser produces a bubble indicating rupture of Bruch's membrane, are included in the study. The compound is administered in suitable form of a Test Article. Test and Control Article treatment begin 3 days post laser induction. In another experiment, the Test and Control Article treatments begin prior to or immediately post induction, in yet other experiments, Test and Control Article treatments begin 10 days post induction. Study duration is 3 weeks, with the option to extend on a weekly basis based on extent of healing. Animals have clinical ophthalmic examinations and fluorescein angiography approximately 3 days post-induction (prior to Test Article treatment) to confirm disease state. The route of administration for Test Article(s) and vehicle control is intravitreal (IVT) injection on Day 1, which is approximately 3-4 days post-induction, once the CNV disease state has been confirmed.
In the first experiment, a low dose (5 μL at 3.7 mg/mL) and a high dose (5 μL at 7.8 mg/mL) of the compound are evaluated against vehicle control. The three treatment groups are (N=8 per group, 24 animals total):
A. Test Article—Low Dose (19 μg/eye)
B. Test Article—High Dose (39 μg/eye)
Daily gross ocular observations and general health observations are performed. Additional exams, performed weekly up to 3 weeks post Test Article dosing, include clinical ophthalmic exams, slit-lamp biomicroscopy, indirect ophthalmoscopy, and fluorescein staining if needed. Ocular findings are scored using the McDonald-Shadduck scoring system.
Fluorescein angiography (e.g. using Heidelberg SPECTRALIS® instrumentation) is performed to determine the degree of neovascularization (NV) in the retina and/or choroid. After fluorescein angiography, tissues are then harvested for possible future analysis (e.g. eyes are fixed in Davidson's solution and then transferred to 70% ethanol). Alternatively, the area of retinal and/or choroidal NV can be determined in various other ways. In one example, prior to sacrifice, the rodents are perfused with PBS containing 50 mg/mL of fluorescein-labeled dextran (2×10^6 Da average molecular mass). Alternatively, fluorescein-labeled Lycopersicon esculentum (tomato) lectin can be used. The choroids are then flat mounted and examined by fluorescence microscopy. A standard image analysis software is then used to measure the total area of retinal/choroidal NV with the investigator masked with respect to treatment group.
Results from an initial experiment treating animals with a control vehicle, low dose (19 μg/eye), or high dose (39 μg/eye) of Compound 7 are shown in FIGS. 1-6.
Animals were dosed on Day 3. […] The surrounding regions around the laser burn continued to show a higher fluorescence from Days 3-14. Day 9 intensities were attenuated due to the presence of fluorescein in both the anterior and posterior chambers of the eye.
FIGS. 4-6 and Tables 1-3 below show Mean (±SEM) of lesion areas in the right, left and both eyes, respectively.

[1] = High Dose (39 μg/eye, 5 μL at 7.8 mg/mL) IVT, Day 3 (prior to dosing)
[2] = High Dose (39 μg/eye, 5 μL at 7.8 mg/mL) IVT, Day 9
[3] = High Dose (39 μg/eye, 5 μL at 7.8 mg/mL) IVT, Day 14
[4] = High dose (39 μg/eye) IVT, Day 3 (baseline)
[5] = High dose (39 μg/eye) IVT, Day 9
[6] = High dose (39 μg/eye) IVT, Day 14
[7] = Low Dose (19 μg/eye, 5 μL at 3.7 mg/mL) IVT, Day 3 (prior to dosing)
[8] = Low Dose (19 μg/eye, 5 μL at 3.7 mg/mL) IVT, Day 9
[9] = Low Dose (19 μg/eye, 5 μL at 3.7 mg/mL) IVT, Day 14
[10] = Low dose (19 μg/eye) IVT, Day 3 (baseline)
[11] = Low dose (19 μg/eye) IVT, Day 9
[12] = Low dose (19 μg/eye) IVT, Day 14

O=C(O)CNC(=O)c1ncc(-c2cccc(F)c2)cc1O [Compound 7, {[5-(3-fluorophenyl)-3-hydroxypyridine-2-carbonyl]amino} acetic acid]
Mean of lesion areas, Both Eyes (OU) [1]: 4.21 | Mean of lesion areas, Left Eye (OS) [1]: 3.86 | Mean of lesion areas, Right Eye (OD) [1]: 4.56 | Mean of lesion areas, Both Eyes (OU) [2]: 1.71 | Mean of lesion areas, Left Eye (OS) [2]: 1.68 | Mean of lesion areas, Right Eye (OD) [2]: 1.75 | Mean of lesion areas, Both Eyes (OU) [3]: 0.71 | Mean of lesion areas, Left Eye (OS) [3]: 0.84 | Mean of lesion areas, Right Eye (OD) [3]: 0.58 | percentage area reduction of lesion areas, Both Eyes [4]: 0.00% | percentage area reduction of lesion areas, Left Eye [4]: 0.00% | percentage area reduction of lesion areas, Right Eye [4]: 0.00% | percentage area reduction of lesion areas, Both Eyes [5]: −53.83% | percentage area reduction of lesion areas, Left Eye [5]: −46.66% | percentage area reduction of lesion areas, Right Eye [5]: −61.00% | percentage area reduction of lesion areas, Both Eyes [6]: −83.63% | percentage area reduction of lesion areas, Left Eye [6]: −79.77% | percentage area reduction of lesion areas, Right Eye [6]: −87.49% | Mean of lesion areas, Both Eyes (OU) [7]: 3.74 | Mean of lesion areas, Left Eye (OS) [7]: 3.48 | Mean of lesion areas, Right Eye (OD) [7]: 4.01 | Mean of lesion areas, Both Eyes (OU) [8]: 1.84 | Mean of lesion areas, Left Eye (OS) [8]: 1.81 | Mean of lesion areas, Right Eye (OD) [8]: 1.88 | Mean of lesion areas, Both Eyes (OU) [9]: 0.96 | Mean of lesion areas, Left Eye (OS) [9]: 1.02 | Mean of lesion areas, Right Eye (OD) [9]: 0.90 | percentage area reduction of lesion areas, Both Eyes [10]: 0.00% | percentage area reduction of lesion areas, Left Eye [10]: 0.00% | percentage area reduction of lesion areas, Right Eye [10]: 0.00% | percentage area reduction of lesion areas, Both Eyes [11]: −48.43% | percentage area reduction of lesion areas, Left Eye [11]: −44.39% | percentage area reduction of lesion areas, Right Eye [11]: −52.47% | percentage area reduction of lesion areas, Both Eyes [12]: −73.63% | percentage area reduction of lesion areas, Left Eye [12]: −68.00% | percentage area reduction of lesion areas, Right Eye [12]: −79.25% | vascular leakage in the ocular vasculature compared with vehicle control (lesion areas over time) (low dose and high dose, FIGS. 4-6 (OD, OS, OU)): reduction of vascular leakage | overall fluorescence and leakage compared to animals treated with vehicle control (low or high doses (19 or 39 μg/eye) IVT): reduced overall fluorescence and leakage | fluorescein leakage in fluorescein angiography images (high dose (5 μL at 7.8 mg/mL), Day 9): Lower fluorescence leakage | fluorescein leakage in fluorescein angiography images (high dose (5 μL at 7.8 mg/mL), Day 14): no fluorescein leakage was observed; also recorded: no fluorescence leakage | fluorescein leakage in fluorescein angiography images (low dose (5 μL at 3.7 mg/mL), Day 9): Lower fluorescence leakage | fluorescein leakage in fluorescein angiography images (low dose (5 μL at 3.7 mg/mL), Day 14): almost subsided completely; also recorded: minimal fluorescence leakage
